According to patent publication US5866571A, “9-substituted 2-(2-n-alkoxyphenyl)-purin-6-ones” (Bayer Aktiengesellschaft, priority 1995, dated 1999):

How the values were obtained:
Assay type in all cases: biochemical
[1] = tested on: PDE I (Ca-calmodulin-stimulatable PDE I); experiment: Inhibition of the phosphodiesterases in vitro: PDE I; details: enzyme from porcine aorta or porcine brain; 1 μM CaCl2, 0.1 μM calmodulin; 10^-6 mol/l nucleotide, pH 7.5, 30 minutes
Method: (§1) Activity of the phosphodiesterases (PDE's)
(§2) The cGMP-stimulatable PDE II, the cGMP-inhibitable PDE III and the cAMP-specific PDE IV were isolated from either the porcine or the bovine myocardium. The Ca-calmodulin-stimulatable PDE I was isolated from porcine aorta or porcine brain. The cGMP-specific PDE V was obtained from porcine small intestine, porcine aorta and/or human blood platelets. Purification was carried out by anion exchange chromatography on MonoQ^R Pharmacia essentially by the method of M. Hoey and Miles D. Houslay, Biochemical Pharmacology, Volume 40, 193-202 (1990).
(§3) The enzyme activity is determined in a test batch of 100 μl in 20 mM Tris/HCl buffer of pH 7.5 which contains 5 mM MgCl2, 0.1 mg/ml of bovine serum albumin and either 800 Bq of ^3 HcAMP or ^3 HcGMP. The final concentration of the corresponding nucleotides is 10^-6 mol/l. The reaction is started by addition of the enzyme and the amount of enzyme is chosen such that about 50% of the substrate is reacted during the incubation time of 30 minutes. In order to test the cGMP-stimulatable PDE II, ^3 HcAMP is used as the substrate and 10^-6 mol/l of non-labelled cGMP is added to the batch. In order to test the Ca-calmodulin-dependent PDE I, 1 μM CaCl2 and 0.1 μM calmodulin are also added to the reaction batch. The reaction is stopped by addition of 100 μl of acetonitrile which contains 1 mM cAMP and 1 mM AMP. 100 μl of the reaction batch are separated on the […] and the cleavage products are determined quantitatively "on line" with a flow-through scintillation counter. The substance concentration at which the rate of reaction is reduced by 50% is measured.
(§4) Inhibition of the phosphodiesterases in vitro

[2] = tested on: PDE II (cGMP-stimulatable PDE II); experiment: Inhibition of the phosphodiesterases in vitro: PDE II; details: enzyme from porcine or bovine myocardium; ^3HcAMP substrate plus 10^-6 mol/l non-labelled cGMP, pH 7.5, 30 minutes
Method: as §1, §2, §3, §4

[3] = tested on: PDE V (cGMP-specific PDE V); experiment: Inhibition of the phosphodiesterases in vitro: PDE V; details: enzyme from porcine small intestine, porcine aorta and/or human blood platelets; 10^-6 mol/l nucleotide, pH 7.5, 30 minutes
Method: as §1, §2, §3, §4

Structure (SMILES)	IC50 [1] [µM]	IC50 [2] [µM]	IC50 [3] [µM]
CCCCCCC(C(C)O)n1cnc2c(=O)[nH]c(-c3ccccc3OCCC)nc21 (stereo not drawn) [Example 3, 9-(2-hydroxy-3-nonyl)-2-(2-n-propoxyphenyl)-purin-6-one]	50	6	0.1
CCCOc1ccccc1-c1nc2c(ncn2C(CCc2ccccc2)C(C)O)c(=O)[nH]1 (stereo not drawn) [Example 4, 9-(2-hydroxy-5-phenyl-3-methyl)-2-(2-n-propoxyphenyl)-purin-6-one]	2	1	5
CCCOc1ccccc1-c1nc2c(ncn2C(CCCc2ccccc2)C(C)O)c(=O)[nH]1 (stereo not drawn) [Example 5, 9-(2-hydroxy-6-phenyl-3-hexyl)-2-(2-n-propoxyphenyl)-purin-6-one]	1	0.5	2
CCCOc1ccccc1-c1nc2c(ncn2C(C)CCCc2ccccc2)c(=O)[nH]1 (stereo not drawn) [Example 11]	0.5	0.3	0.5
CCCCCCC(C(C)NC(C)=O)n1cnc2c(=O)[nH]c(-c3ccccc3OCCC)nc21 (stereo not drawn) [Example 37, 9-(2-Acetamido-3-nonyl)-2-(2-n-propoxyphenyl)-purin-6-one]	2	2	1
CCCCCCC(CC)n1cnc2c(=O)[nH]c(-c3cc(S(=O)(=O)N4CCOCC4)ccc3OCCC)nc21 (stereo not drawn) [Example 57]	0.3	0.3	0.1
